Literature values, collected in article PMC2063170, “A phase I clinical and pharmacokinetic study of the new topoisomerase inhibitor GI147211 given as a 72-h continuous infusion” (British Journal of Cancer, 1998).

Parameters: method as in Burris et al. 1994
Details: ref Burris et al. 1994, cited from earlier work

## CC[C@@]1(O)C(=O)OCc2c1cc1n(c2=O)Cc2cc3c(CN(C)C)c(O)ccc3nc2-1 [topotecan]
Continuous infusion for 3 days every 3 weeks
  MTD: 1.6 mg m-2 day-1
plasma, 1.6 mg m-2 day-1 continuous infusion for 3 days every 3 weeks
  Css of lactone at MTD: 5.5 ng/mL
